Experimental data reported in ChEMBL document CHEMBL1201862, “PubChem BioAssay data set” (2004).
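Compound exposure: 48 hours, 5 concentrations, 96-well plates. The concentration for 50% growth inhibition is given as GI50.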 Calls of active or inactive are those of the source. No stated cut-off is given here; in the data, active = GI50 up to about 1.1 µM and inactive = higher.

How the values were obtained:
Assay in all cases: DTP human tumour cell line panel, 48 h
LXFL 529 = test system: LXFL 529
SW-620 = test system: SW-620
NCI-H460 = test system: NCI-H460
TK-10 = test system: TK-10
M14 = test system: M14
RPMI-8226 = test system: RPMI-8226
HCT-15 = test system: HCT-15
EKVX = test system: EKVX
UACC-62 = test system: UACC-62
CAKI-1 = test system: CAKI-1
SF-539 = test system: SF-539
SF-295 = test system: SF-295
SN12C = test system: SN12C
CCRF-CEM = test system: CCRF-CEM
SF-268 = test system: SF-268
DU-145 = test system: DU-145
BT-549 = test system: BT-549
RXF 393 = test system: RXF 393
A498 = test system: A498
Hs-578T = test system: Hs-578T

Row | SMILES | GI50 (LXFL 529) | GI50 (SW-620) | GI50 (NCI-H460) | GI50 (TK-10) | GI50 (M14) | GI50 (RPMI-8226) | GI50 (HCT-15) | GI50 (EKVX) | GI50 (UACC-62) | GI50 (CAKI-1) | GI50 (SF-539) | GI50 (SF-295) | GI50 (SN12C) | GI50 (CCRF-CEM) | GI50 (SF-268) | GI50 (DU-145) | GI50 (BT-549) | GI50 (RXF 393) | GI50 (A498) | GI50 (Hs-578T)
1 | N#Cc1ccc(C(C2C(=O)NC(=O)NC2=O)C2C(=O)NC(=O)NC2=O)cc1 | > 100 µM (inactive) | > 100 µM (inactive) | > 100 µM (inactive) | > 100 µM (inactive) | > 100 µM (inactive) | > 100 µM (inactive) | > 100 µM | > 100 µM (inactive) | > 100 µM (inactive) | > 100 µM (inactive) | > 100 µM (inactive) | > 100 µM (inactive) | > 100 µM (inactive) | > 100 µM (inactive) | > 100 µM (inactive) | – | – | – | – | –
2 | C=C1C(=O)O[C@@H]2C[C@]3(C)CC[C@]4(C)[C@H](CC[C@@H]5[C@@]6(C)CCC(=O)C(C)(C)[C@@H]6CC[C@]54C)[C@H]3[C@H]12 [OCHRACEOLIDE A] | – | 11.6 µM (inactive) | 18.5 µM (inactive) | 16 µM (inactive) | 14.6 µM (inactive) | 2.1 µM (inactive) | 12.5 µM | 19 µM (inactive) | 16.9 µM (inactive) | 13.1 µM (inactive) | 21.7 µM (inactive) | 17.8 µM (inactive) | 17.5 µM (inactive) | 2.43 µM (inactive) | 22.2 µM (inactive) | 17.9 µM (inactive) | 16.1 µM (inactive) | 16.6 µM (inactive) | 21 µM (inactive) | 31.6 µM (inactive)
3 | CCOC(=O)/C(C(=O)c1ccccc1)=C1\N[C@H](C(=O)OCC)CS1 | > 100 µM (inactive) | > 100 µM (inactive) | > 100 µM (inactive) | – | > 100 µM (inactive) | > 100 µM (inactive) | > 100 µM | > 100 µM (inactive) | > 100 µM (inactive) | > 100 µM (inactive) | 10 µM (inactive) | > 100 µM (inactive) | > 100 µM (inactive) | > 100 µM (inactive) | > 100 µM (inactive) | – | – | > 100 µM (inactive) | – | –
4 | COc1cc(CSc2ccc(O)cc2)cc(O)c1O | – | 38.5 µM (inactive) | > 10 µM (inactive) | 53.1 µM (inactive) | 20.5 µM (inactive) | 15.7 µM (inactive) | 18.7 µM | 85.7 µM (inactive) | 22.8 µM (inactive) | 28 µM (inactive) | 29.9 µM (inactive) | 23.2 µM (inactive) | 25.2 µM (inactive) | 8.36 µM (inactive) | 28.8 µM (inactive) | 44.5 µM (inactive) | 18.3 µM (inactive) | 50.6 µM (inactive) | > 100 µM (inactive) | 42.1 µM (inactive)
5 | C=CCc1c(Cl)nc(Cl)nc1Cl | – | 0.0495 µM (active) | 0.565 µM (active) | 1.08 µM (active) | < 0.0156 µM (active) | 0.301 µM (active) | 0.0873 µM | 1.02 µM (active) | 0.333 µM (active) | 0.0176 µM (active) | 1.04 µM (active) | 1.93 µM (inactive) | 0.258 µM (active) | < 0.01 µM (active) | 1.66 µM (inactive) | 2.01 µM (inactive) | 0.0474 µM (active) | 0.217 µM (active) | 1.94 µM (inactive) | 0.368 µM (active)
6 | COc1ccc2nc(N/N=C/C(C)=N/Nc3cc(C)c4cc(OC)ccc4n3)cc(C)c2c1 | – | 17 µM (inactive) | 14.7 µM (inactive) | 30.5 µM (inactive) | 39.1 µM (inactive) | 7.33 µM (inactive) | 9.75 µM | 19.2 µM (inactive) | 30.8 µM (inactive) | 49.4 µM (inactive) | 17.8 µM (inactive) | 25.1 µM (inactive) | 23.9 µM (inactive) | 2.47 µM (inactive) | 25.6 µM (inactive) | 18.1 µM (inactive) | 74.3 µM (inactive) | 39.9 µM (inactive) | > 68.2 µM (inactive) | 31 µM (inactive)
7 | O=C1C(Cl)=C(N(C(=O)c2ccccc2)C(=O)c2ccccc2)C(=O)c2ccccc21 | – | 5.15 µM (inactive) | 5.12 µM (inactive) | 21.2 µM (inactive) | 14.4 µM (inactive) | 2.05 µM (inactive) | 2.94 µM | 5.74 µM (inactive) | 5.12 µM (inactive) | 10.5 µM (inactive) | 4.3 µM (inactive) | 28.2 µM (inactive) | 18.3 µM (inactive) | 2.84 µM (inactive) | 2.48 µM (inactive) | > 100 µM (inactive) | 9.04 µM (inactive) | 3.66 µM (inactive) | > 100 µM (inactive) | 4.8 µM (inactive)
8 | Cc1ccc(/N=C2/SC(c3ccc(C)cc3)(c3ccc(C)cc3)c3ccccc32)cc1 | – | > 100 µM (inactive) | > 100 µM (inactive) | > 100 µM (inactive) | > 100 µM (inactive) | > 100 µM (inactive) | > 100 µM | > 100 µM (inactive) | > 100 µM (inactive) | > 100 µM (inactive) | > 100 µM (inactive) | > 100 µM (inactive) | > 100 µM (inactive) | > 100 µM (inactive) | > 100 µM (inactive) | > 100 µM (inactive) | > 100 µM (inactive) | > 100 µM (inactive) | > 100 µM (inactive) | > 100 µM (inactive)
9 | Br/C(=N\N=c1/nn[nH][nH]1)c1ccncc1 | – | > 100 µM (inactive) | > 100 µM (inactive) | > 100 µM (inactive) | > 100 µM (inactive) | > 100 µM (inactive) | > 100 µM | > 100 µM (inactive) | > 100 µM (inactive) | > 100 µM (inactive) | > 100 µM (inactive) | > 100 µM (inactive) | > 100 µM (inactive) | > 100 µM (inactive) | > 100 µM (inactive) | > 100 µM (inactive) | > 100 µM (inactive) | > 100 µM (inactive) | > 100 µM (inactive) | > 100 µM (inactive)
10 | O=C(CCC(=O)Nc1ccc(Cl)cc1)CC(=O)c1ccc(F)cc1 | > 100 µM (inactive) | > 100 µM (inactive) | > 100 µM (inactive) | > 100 µM (inactive) | > 100 µM (inactive) | > 100 µM (inactive) | > 100 µM | – | > 100 µM (inactive) | > 100 µM (inactive) | > 100 µM (inactive) | > 100 µM (inactive) | > 100 µM (inactive) | – | > 100 µM (inactive) | – | – | – | – | –
11 | C/C(=N\NC(N)=S)c1ccccn1.OB(O)c1ccccc1 | – | 5.93 µM (inactive) | 3.78 µM (inactive) | 14 µM (inactive) | 2.98 µM (inactive) | 5.87 µM (inactive) | 2.84 µM | 4.69 µM (inactive) | 3.25 µM (inactive) | 3.63 µM (inactive) | 3.6 µM (inactive) | 7.05 µM (inactive) | 3.52 µM (inactive) | 2.18 µM (inactive) | 2.67 µM (inactive) | 3.3 µM (inactive) | 8.15 µM (inactive) | 2.37 µM (inactive) | 5.89 µM (inactive) | > 100 µM (inactive)
12 | CCCCCc1c(CCCC)c(=O)[nH]c2cc(CNCC(OC)OC)ccc12 | – | 5.79 µM (inactive) | 10.5 µM (inactive) | 15 µM (inactive) | 2.81 µM (inactive) | 4.08 µM (inactive) | 9.53 µM | 16.2 µM (inactive) | 5.85 µM (inactive) | 10.9 µM (inactive) | 14.8 µM (inactive) | 17.2 µM (inactive) | 14.2 µM (inactive) | 4.05 µM (inactive) | 16.7 µM (inactive) | 14.6 µM (inactive) | 14.8 µM (inactive) | 12 µM (inactive) | 15.1 µM (inactive) | 18.5 µM (inactive)
13 | Clc1ccc2c(c1)N(CCCN1CCCC13CCCCC3)c1ccccc1S2 | – | 14.9 µM (inactive) | 7.48 µM (inactive) | 14.5 µM (inactive) | 13.6 µM (inactive) | 2.79 µM (inactive) | 17.1 µM | 11.9 µM (inactive) | 16.6 µM (inactive) | 24.2 µM (inactive) | 17.2 µM (inactive) | 15.6 µM (inactive) | 13.4 µM (inactive) | 4.06 µM (inactive) | 18.8 µM (inactive) | 16.6 µM (inactive) | 14.9 µM (inactive) | 5.93 µM (inactive) | 16 µM (inactive) | 13.5 µM (inactive)
14 | CSc1nc2c(c(N(C)C)n1)C(O)n1c(nc3ccccc31)S2 (stereo not given) | – | > 100 µM (inactive) | 73.5 µM (inactive) | > 53.2 µM (inactive) | > 65.3 µM (inactive) | > 100 µM (inactive) | > 100 µM | > 100 µM (inactive) | > 85.9 µM (inactive) | > 58.5 µM (inactive) | 15.2 µM (inactive) | 38.1 µM (inactive) | > 100 µM (inactive) | > 100 µM (inactive) | 32.7 µM (inactive) | 69.7 µM (inactive) | 67 µM (inactive) | 21.3 µM (inactive) | > 100 µM (inactive) | 14.1 µM (inactive)
15 | O=C(CCl)Nc1cc(Cl)c(Cl)cc1Cl | – | 2.58 µM (inactive) | 1.73 µM (inactive) | 1.83 µM (inactive) | 1.48 µM (inactive) | 4.74 µM (inactive) | 2.09 µM | 2.54 µM (inactive) | 1.93 µM (inactive) | 2.96 µM (inactive) | 1.67 µM (inactive) | 5.26 µM (inactive) | 1.52 µM (inactive) | 0.966 µM (active) | 2.3 µM (inactive) | 3.16 µM (inactive) | 1.77 µM (inactive) | 2.65 µM (inactive) | 5.15 µM (inactive) | 3.4 µM (inactive)
16 | COC1OC(OC)C2C(c3c(C)cc(C)cc3C)=NOC12 (stereo not given) | > 100 µM (inactive) | > 100 µM (inactive) | > 100 µM (inactive) | > 100 µM (inactive) | > 100 µM (inactive) | > 100 µM (inactive) | > 100 µM | > 100 µM (inactive) | > 100 µM (inactive) | > 100 µM (inactive) | – | > 100 µM (inactive) | – | > 100 µM (inactive) | > 100 µM (inactive) | – | – | > 100 µM (inactive) | – | –
